From PubChem BioAssay AID1996
In brackets after ≈: the same amount, converted by molar mass.

Conditions: buffer; pH 7.4; 200.0 µM

SMILES | solubility kinetic
CCc1ccccc1NC(=O)CCOc1ccccc1 | 39 µg/mL (≈ 145 µM)
COc1ccc2c(CCNC(N)=S)c[nH]c2c1 | 17.7 µg/mL (≈ 71 µM)
CCCCNS(=O)(=O)c1ccc2nc(SCC(N)=O)[nH]c2c1 | > 51.4 µg/mL
CCOC(=O)N1CCN(c2nc3ccccn3c(=O)c2C=O)CC1 | > 49.6 µg/mL
CCN(c1ccccc1)S(=O)(=O)c1cc(NC(=O)C2CC2)ccc1Cl | 26.2 µg/mL (≈ 69.2 µM)
O=C1CN(S(=O)(=O)c2ccc(F)cc2)CCN1 | > 38.7 µg/mL
COC(=O)c1cc(NC(=O)COC(=O)CCc2nc3ccccc3c(=O)[nH]2)cc(C(=O)OC)c1 | 18 µg/mL (≈ 38.5 µM)
CCOc1ccc(N=CNc2ccc(OCC)cc2)cc1 | 33 µg/mL (≈ 116 µM)
COc1ccc(NC(=S)N2CCCCC2c2cccnc2)cc1 (stereo unspecified) | 49 µg/mL (≈ 150 µM)
NC(=O)C1CCN(CC(O)CSc2ccccc2)CC1 (stereo unspecified) | > 44.2 µg/mL
Cc1noc(C)c1C(=O)NCCc1ccc(S(N)(=O)=O)cc1 | > 48.5 µg/mL
O=C(COc1ccccc1F)OCC(=O)c1ccc([N+](=O)[O-])cc1 | 46.8 µg/mL (≈ 140 µM)
CC(=O)NC(NC(=S)Nc1ccc(S(N)(=O)=O)cc1)C(Cl)(Cl)Cl (stereo unspecified) | 62.6 µg/mL (≈ 149 µM)
Cc1ccc(CNC(=O)COC(=O)C2CCC2)cc1 | > 39.2 µg/mL
Cc1csc(SCC(=O)NC(=O)NCCC(C)C)n1 | 22.6 µg/mL (≈ 75 µM)
COc1cc2c(cc1OC)C(c1cccc([N+](=O)[O-])c1)=NCC2 | > 46.8 µg/mL
COc1ccc(N(Cc2cc3cc(C)ccc3[nH]c2=O)C(C)=O)cc1 | 47 µg/mL (≈ 140 µM)
FC(F)(F)c1cnc(COc2cc(Cl)cc(Cl)c2)c(Cl)c1 | < 0.8 µg/mL
O=C(O)C1CCCN(S(=O)(=O)Cc2ccccc2)C1 (stereo unspecified) | 37.7 µg/mL (≈ 133 µM)
O=C(CCc1nc(-c2ccc(F)cc2)no1)Nc1cccc(C(=O)NC2CC2)c1 | 9.7 µg/mL (≈ 24.6 µM)
COc1ccc(OC)c(C(=O)NC2CCSc3ccccc32)c1 (stereo unspecified) | 12.1 µg/mL (≈ 36.7 µM)

SMILES | solubility kinetic
N#CC1(NC(=O)COc2cccnc2[N+](=O)[O-])CCCCC1 | > 45.6 µg/mL
N#Cc1ccccc1OCC(=O)Nc1ccc2c(c1)OCCCO2 | > 48.7 µg/mL
CCOc1ncccc1C(=O)OCC(=O)NCc1ccccc1 | 45.9 µg/mL (≈ 146 µM)
CC(CCc1ccccc1)NC(=O)c1ccc(F)cc1 (stereo unspecified) | 33.6 µg/mL (≈ 124 µM)
Br.C=CCN1C2=NCCCN2c2ccccc21 | > 44.1 µg/mL
COc1cc(F)ccc1S(=O)(=O)n1c(C)nc2ccccc21 | > 48.1 µg/mL
COc1cccc(CNC(=O)N2CCN(c3ccccc3C)CC2)c1 | 15.3 µg/mL (≈ 45.1 µM)
O=C(Nc1ccccc1C(=O)N1CCCCC1)c1ccco1 | > 44.8 µg/mL
CCOC(=O)C1(C)Oc2ccc(S(=O)(=O)CC)cc2NC1=O (stereo unspecified) | 42.7 µg/mL (≈ 130 µM)
CC(C)(C)C(=O)Nc1ccc(/C=C/C(=O)c2ccco2)cc1 | 28.9 µg/mL (≈ 97.2 µM)
Cc1ccc(C(=O)Nc2cccc(NC(=O)CN3CCCCC3)c2)cc1 | 41.4 µg/mL (≈ 118 µM)
O=C(O)/C=C\C(=O)O.c1ccc(Sc2ccccc2CN2CCCC2)cc1 | > 57.8 µg/mL
CCCn1c(=N)c(C#N)cc2c(=O)n3cccc(C)c3nc21 | 2.3 µg/mL (≈ 7.84 µM)
CCOC(=O)C1CCN(C(=S)Nc2ccc(C)cc2)CC1 | 19.9 µg/mL (≈ 64.9 µM)
Cc1cc(C)nc(N2CCC(C(=O)NCc3ccccc3F)CC2)n1 | 0.3 µg/mL (≈ 0.876 µM)
Cc1cc(S(=O)(=O)NCc2ccc(N3CCN(C)CC3)cc2)c(C)s1 | 15.8 µg/mL (≈ 41.6 µM)
C[n+]1ccccc1/C=N/O.[I-] | > 39.6 µg/mL
C=CCNC(=O)N[C@@H](Cc1ccccc1)C(=O)OC | > 39.3 µg/mL
CNC(=S)N1CCc2cc(OC)c(OC)cc2C1 | > 40 µg/mL
O=C(CCc1nc(-c2ccccc2)no1)Nc1cccnc1 | > 44.1 µg/mL
O=C(Nc1cccc(C(=O)Nc2ccccc2F)c1)c1ccccc1 | 1 µg/mL (≈ 2.99 µM)

SMILES | solubility kinetic
COc1cc(CNC(C)(C)C)ccc1OCC(=O)NC(C)(C)C | > 48.4 µg/mL
CCOc1cccc2sc(Cl)nc12 | 3.9 µg/mL (≈ 18.3 µM)
CCCNC(=O)COC(=O)/C=C/c1ccc(C)o1 | > 37.7 µg/mL
CC(=O)c1ccc(O)c(CSC2=NCCS2)c1 | 35.2 µg/mL (≈ 132 µM)
Cc1cccc(NC(=O)CCCN2C(=S)NC(C)(C)CC2C)c1C (stereo unspecified) | > 52.1 µg/mL
COc1ccc2nc(NC(=O)Nc3ccccc3OC)sc2c1 | 1.4 µg/mL (≈ 4.25 µM)
O=C(CSc1nncn1-c1ccccc1)N1CCCC1 | > 43.3 µg/mL
O=c1ccc2cc(S(=O)(=O)NCCCc3ccccc3)ccc2[nH]1 | 1 µg/mL (≈ 2.92 µM)
CC1CCN(c2nc(N(C)c3ccccc3)nc(N)c2[N+](=O)[O-])CC1 | 4.6 µg/mL (≈ 13.4 µM)
CCNC(=S)Nc1ccc(OC(F)(F)F)cc1 | > 39.6 µg/mL
O=C(Nc1ccc(Cl)cn1)C1COc2ccccc2O1 (stereo unspecified) | 2 µg/mL (≈ 6.88 µM)
O=C(CN1N=C(c2ccccc2)CCC1=O)NCc1cccs1 | > 49.1 µg/mL
N#CCn1cnc2c(oc3ccccc32)c1=O | > 33.8 µg/mL
COC(=O)CNC(=O)COC(=O)/C=C/c1cccs1 | > 42.5 µg/mL
c1ccc(CCNc2nc(-c3ccccn3)nc3ccccc23)cc1 | 31.4 µg/mL (≈ 96.2 µM)
Cc1csc2c(=O)sc(NC(=O)c3ccco3)nc12 | 4.5 µg/mL (≈ 15.4 µM)
CCOc1ccccc1CNCc1ccc(F)cc1.Cl | 43.8 µg/mL
COc1ccc(NC(=O)CSc2nc3ccc(OC)cc3[nH]2)cc1 | 6 µg/mL (≈ 17.5 µM)
COc1cc(C(=O)NCc2ccc3[nH]c(C)cc3c2)cc(OC)c1OC | 12.5 µg/mL (≈ 35.3 µM)
